Read-outs that look alike come from different tables or passages of the source. Where a SMILES comes first, the peptide text is derived from it. Where no end group is shown, it is not given here. A value given as a limit tells only on which side of the number the result lay.

Results on 4 molecules are retold here after patent US20250101062A1, “ANTIMICROBIAL PEPTIDES” (Board of Regents of the University of Nebraska, priority 2023, published 2025).

For one data set, the system named is A. baumannii B28-16. In kind it is cell-based, Acinetobacter baumannii. In a few lines:
(§1)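 Peptides twofold serially diluted against exponential-phase resistant clinical isolates at ~10^5 CFU/mL in MHB (also diluted MHB, TSB or LB in one protocol), CLSI-based broth microdilution. Incubated overnight at 37° C., OD 600 nm read; MIC taken as lowest concentration without growth, reported as ranges.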

A further data set deals with S. epidermidis 1457. The data set is described as follows: microbe, parasite or virus in culture. Particulars: read-out: Antimicrobial activity (MIC) S. epidermidis 1457. It counts as cell-based, Staphylococcus epidermidis. In a few lines:
as §1

A further data set is described as follows: Cytotoxicity assay (MTS). It counts as cell-based. As to conditions: human, HepG2 cells, read-out: LC50. As to the method: (§2) HepG2 cells were cultured in ATCC-formulated Eagle's Minimum Essential Medium with 10% FBS. A549 cells were grown in ATCC-formulated F-12K Medium containing 10% FBS.
The nature of data set [1]: Cell viability assay (MTS). In kind it is cell-based, human. Particulars: human; 24 h; read-out: 50% lethal concentration (LC50). Here is the method: Human keratinocyte HaCaT cells were grown in DMEM/high glucose (Hyclone, UT) containing 10% fetal bovine serum (Mediatech, Corning, Manassas, VA). […] The mixture was incubated at 37° C. in 5% CO2 for 24 hours.
as §2

A further data set deals with K. pneumoniae E406-17. In kind it is cell-based, Klebsiella pneumoniae. The gist of the method:
as §1

The next data set deals with human red blood cells. In words: Hemolytic assay. It counts as cell-based. Here is the method:
The hemolytic effects of peptides were evaluated using a method with minor modifications (Lakshmaiah Narayana, et al. (2021) ACS Infect. Dis., 7:1795-1808). Human red blood cells (hRBCs, UNMC Blood Bank) were washed (3×) with blood bank saline (isotonic solution 0.90% w/v, Fisher). Cells were diluted to 2% using the saline solution, and aliquots of 90 μL were added to a 96-well polystyrene microplate containing 10 μL of serially diluted peptide solutions. After incubation at 37° C. for 1 hour, plates were centrifuged at 500 g for 5 minutes. Aliquots of the supernatant were transferred to a 96-well microplate. The amount of hemoglobin released was measured at 545 nm by using a ChroMate™ microplate reader. […] HC50 is defined as the concentration of the peptide that caused 50% lysis.
The hemolytic effects of peptides were evaluated (Narayana, et al. (2020) Proc. Natl. Acad. Sci., 117(32):19446-9454). In brief, human red blood cells (UNMC Blood Bank) were washed (3×) and diluted to 2% using the saline solution. Aliquots of 90 μL were mixed with 10 μL of serially diluted peptide solutions. After incubation at 37° C. for 1 hour, plates were centrifuged at 500 g for 5 minutes and aliquots of the supernatant were transferred to a new 96-well microplate to measure the amount of hemoglobin released at 545 nm (relative to 1% Triton® X-100) using a ChroMate® Microplate Reader.

The subject of data set [2] is E. coli E423-17. It counts as cell-based, Escherichia coli.
In the next data set the test system is P. aeruginosa E416-17. In kind it is cell-based, Pseudomonas aeruginosa. As to the method: Peptide activity against bacteria were tested using the CLSI standard procedure with minor modifications (Clinical and Laboratory Standards Institute (2018) Performance standards for antimicrobial susceptibility testing, 9th ed.; Mishra, et al. (2019) Proc. Natl. Acad. Sci., 116(27):13517-13522). In brief, a peptide concentration gradient with twofold dilution was made in the 96-well polystyrene microplate at 10 μL per well. Bacteria were grown to the exponential phase (i.e., optical density at 600 nm≈0.5), diluted to ˜10^5 CFU/mL in MHB, and partitioned into the 96-well microplate at 90 μL per well. The microplates were incubated at 37° C. overnight and read on a ChroMate® 4300 Microplate Reader at 600 nm (GMI, Ramsey, MN). The peptide concentration in the wells without bacterial growth is the minimal inhibitory concentration (MIC). As the convention, MIC values were represented as ranges.

Data set [3] concerns P. aeruginosa E411-17. In words: microbe, parasite or virus in culture. It counts as cell-based, Pseudomonas aeruginosa. As to conditions: for MIC: read-out: Antimicrobial activity (MIC). In a few lines:
(§3)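 Broth microdilution with twofold peptide dilutions, using exponential-phase bacteria at about 10^5 CFU/mL in MHB, incubated overnight at 37 °C and read at OD600. MIC, reported as a range, is the peptide concentration with no growth. Some tests used diluted MHB/TSB/LB, adjusted pH, or added NaCl or human serum.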

In another data set the test system is S. aureus USA300 LAC. In words: microbe, parasite or virus in culture. In kind it is cell-based, Staphylococcus aureus. The gist of the method:
as §3

Data set [4] has as its system E. coli E423-17. In kind it is cell-based, Escherichia coli. Particulars: DMEM.
The target in a further data set is T1, pepsin (Sus scrofa, UniProt P00791).
T1 construct: purchased Thermo Fisher Scientific
It counts as in vitro ADME, mammalian.

The target in the next data set is T2, chymotrypsin (Bos taurus, UniProt P00766).
T2 construct: purchased Thermo Fisher Scientific
In kind it is in vitro ADME, mammalian.

In another data set the test system is trypsin. As to conditions: peptide:protease 40:1, 37° C., 1 hour. As to the method:
A solution of peptide/protease (40:1 molar ratio) was made in phosphate-buffered saline (PBS; pH 7.1, Gibco, NY) and incubated at 37° C. for 1 hour. As controls, peptides without proteases were also incubated in the same manner. Then, aliquots of 10 μL were transferred to a 96-well polystyrene microplate and mixed with the exponential-phase MRSA USA300 culture as performed in the antibacterial activity assays above.

Data set [5] relates to P. aeruginosa E411-17. The data set is described as follows: Killing kinetics. As to conditions: 4×MIC. It counts as cell-based, Pseudomonas aeruginosa. As to the method:
For bacterial killing kinetics study, MRSA USA300 and P. aeruginosa E411-17 was grown to the exponential phase (OD600˜0.3) in MHB. The culture was diluted to OD600 0.001 (˜10^5 CFU/mL). One milliliter of bacterial suspension was then mixed with the peptide, colistin or daptomycin at 4×MIC and incubated at 37° C. After 15, 30, 60, 90, and 120 minutes incubation, 50 μL was taken and serially diluted with 1×PBS. Then, 50 μL of the diluted suspension was plated on Mannitol Salt Agar (MRSA USA300) or Cetrimide Agar (P. aeruginosa E411-17) plates (NEOGEN, MI). The plates were incubated overnight at 37° C. for bacterial CFU count the next day.

In data set [6] the test system is E. coli E423-17. In words: Membrane permeabilization (propidium iodide). It counts as cell-based, Escherichia coli. Particulars: Example 1, 1×MIC.

T1 sequence (P00791 60-385): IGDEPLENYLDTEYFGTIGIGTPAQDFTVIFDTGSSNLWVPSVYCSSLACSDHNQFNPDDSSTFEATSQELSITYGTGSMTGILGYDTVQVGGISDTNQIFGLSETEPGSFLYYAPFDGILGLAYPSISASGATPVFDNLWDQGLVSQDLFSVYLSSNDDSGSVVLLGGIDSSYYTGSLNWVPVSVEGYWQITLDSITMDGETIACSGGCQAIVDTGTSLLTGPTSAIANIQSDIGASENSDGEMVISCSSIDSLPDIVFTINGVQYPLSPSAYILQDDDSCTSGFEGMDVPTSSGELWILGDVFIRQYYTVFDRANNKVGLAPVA

With RWKRFLRNWV-NH2 [RIK-10+], the “Antimicrobial activity (MIC) A. baumannii B28-16” value in the data set with A. baumannii B28-16 (B28-16) was determined as 8 µM. In addition, the MIC in the data set on S. epidermidis 1457 was above 32 µM; with P. aeruginosa E411-17 [3] (E411-17, pH 6.21), 8 µM; in the data set on P. aeruginosa E411-17 [3] (E411-17, pH 8.13), 4 µM; with P. aeruginosa E411-17 [3] (E411-17) it was above 32 µM; with S. aureus USA300 LAC (USA300, pH 6.21, read-out: Antimicrobial activity (MIC)) it was above 32 µM; with S. aureus USA300 LAC (USA300, pH 7.22, read-out: Antimicrobial activity (MIC)), 16 µM. The MIC was 8 µM in the data set with S. aureus USA300 LAC (USA300, pH 8.13, read-out: Antimicrobial activity (MIC)); above 32 µM in the data set with S. aureus USA300 LAC (USA300, read-out: Antimicrobial activity (MIC)); 16 µM in the data set with S. aureus USA300 LAC (USA300, read-out: Antimicrobial activity (MIC) S. aureus USA300). Further, the CC50 at 24 h (in “Cytotoxicity assay (MTS)”; in data set [1]) was 100 µM in each case. Moreover, in the data set with K. pneumoniae E406-17, the “MIC K. pneumoniae E406-17” value came out at 32 µM. For the same molecule, the “Hemolysis (HC10), 10% hemolytic concentration” value in the data set with human red blood cells (red cells of human) worked out at 220 µM. Further, the “Antimicrobial activity (MIC) E. coli E423-17” value in the data set on E. coli E423-17 [2] (E423-17) was determined as 4 µM. The “MIC E. coli E423-17” value in the data set on E. coli E423-17 [2] (E423-17) is 4 to 8 µM. Also, the “MIC P. aeruginosa E416-17” value against P. aeruginosa E416-17 came to 4 µM. Also, the “Antimicrobial activity (MIC) P. aeruginosa E411-17” value in the data set with P. aeruginosa E411-17 [3] (E411-17) came out at 4 µM. The “Antimicrobial activity (MIC)” value in the data set with P. aeruginosa E411-17 [3] (E411-17, pH 7.22) was 4 to 8 µM. Besides, in the data set with S. aureus USA300 LAC (USA300), the “MIC S. aureus USA300” value lay within 16 to 32 µM.

Regarding “RIKDFLRNLV-NH2 (C-terminus assumed) [RIK-10]”, the “Antimicrobial activity (MIC)” value in the data set on E. coli E423-17 [4] was 8 µM; in the data set with E. coli E423-17 [2] (E423-17), 32 to 64 µM; in the data set with E. coli E423-17 [2] (MHB 100%), 16 µM; in the data set on S. aureus USA300 LAC (MHB 12.5%), “active”.

Regarding `N=C(N)NCCC[C@@H](N)C(=O)N[C@H](CCCNC(=N)N)C(=O)N[C@H](Cc1c[nH]c2ccccc12)C(=O)N[C@H](Cc1c[nH]c2ccccc12)C(=O)N[C@H](CCCNC(=N)N)C(=O)N[C@H](Cc1c[nH]c2ccccc12)C(=O)N[C@H](Cc1c[nH]c2ccccc12)C(=O)N[C@H](CCCNC(=N)N)C(N)=O` [LL-37mini (D-form)] (HELM PEPTIDE1{[dR].[dR].[dW].[dW].[dR].[dW].[dW].[dR].[am]}$$$$V2.0), the figures for the “activity after protease incubation” value at pepsin, at chymotrypsin and in the data set on trypsin were “retained antibacterial activity”, “remained active” and “remained active”, respectively.

With Colistin [reference compound], the “Antimicrobial activity (MIC) A. baumannii B28-16” value in the data set with A. baumannii B28-16 (MHB, Table 8) turned out to be 2 µM. Besides, the hemolysis entry in the data set with human red blood cells (at 400 μM) is recorded as “did not lyse human red blood cells even at 400 μM”. The “Antimicrobial activity (MIC) E. coli E423-17” value in the data set on E. coli E423-17 [2] (MHB, Table 8) lay within 1 to 2 µM. Further, the “Antimicrobial activity (MIC)” value in the data set with P. aeruginosa E411-17 [3] (Human serum 5%), in the data set with P. aeruginosa E411-17 [3] (pH 7.22) and with P. aeruginosa E411-17 [3] (pH 8.13) was 1 to 2 µM throughout. In addition, the MIC in the data set with P. aeruginosa E411-17 [3] (Human serum 10%) is recorded as 2 µM; with P. aeruginosa E411-17 [3] (NaCl (150 mM)), 2 µM; with P. aeruginosa E411-17 [3] (pH 6.21) it was 2 µM; with S. aureus USA300 LAC (Human serum 5%, read-out: Antimicrobial activity (MIC)), above 8 µM; with S. aureus USA300 LAC (Human serum 10%, read-out: Antimicrobial activity (MIC)) it was above 8 µM; with S. aureus USA300 LAC (NaCl (150 mM), read-out: Antimicrobial activity (MIC)), above 8 µM. Moreover, the MIC in the data set with S. aureus USA300 LAC (pH 6.21, read-out: Antimicrobial activity (MIC)) is above 8 µM; in the data set on S. aureus USA300 LAC (pH 7.22, read-out: Antimicrobial activity (MIC)) it was above 8 µM; with S. aureus USA300 LAC (pH 8.13, read-out: Antimicrobial activity (MIC)), above 8 µM. Besides, the “Antimicrobial activity (MIC) P. aeruginosa E411-17” value in the data set with P. aeruginosa E411-17 [3] (MHB, Table 8) is 1 to 2 µM. In addition, the time to kill in the data set with P. aeruginosa E411-17 [5] worked out at 30 min. Besides, the membrane permeabilization result with E. coli E423-17 [6] is given as “powerful membrane permeator”.
